According to patent publication US8318899B2, “Lytic domain fusion constructs and methods of making and using same” (Board of Supervisors of Louisiana State University and …, priority 2008, dated 2012):

Legend:
[1] = test system: OVCAR-3; assay: IC50 in OVCAR-3 ovarian cancer cell line; type: cell-based, human
Method: MDA-MB435S.luc cells were grown in Leibovitz's L 15 medium, 10% fetal bovine serum, 0.01 mg/ml bovine insulin, 100 IU/ml penicillin, 100 microg/ml streptomycin. The cells were cultured in tight closed flasks. The incubations were conducted using 96 well plates at 10,000 cells per well. Cells were typically seeded into 96 well plates and media was replaced after 48 hours of incubation. Each assay was conducted at increasing concentrations of 0, 0.001, 0.01, 0.05, 0.1, 0.5, 1, 2, 5, 10 and 100 micromolar doses of lytic peptide-binding domain conjugate. Each lytic peptide-binding domain conjugate provided in lyophilized form and was freshly dissolved in saline and added to cells. The duration of incubation was typically 24 h, and cell viability assays were conducted using formazan conversion assays (MTT assay). Controls contained saline or 0.1% triton as reference for 0 and 100% cell death, respectively.
To ascertain the IC50 of various fusion constructs on different human cancer cell lines compared to cisplatinum, IC50 of fusion constructs were evaluated as in Table 3.

[2] = test system: OVCAR-3 cells; type: cell-based, human; conditions: OVCAR-3 p47, series with increasing incubation time (times not given per value)
Text: Membranes of non-cancerous cell lines are neutral and are resistant to cytolytic peptides, in contrast to cancer cell lines, which have a high phosphatidic acid content in their outer membrane.
The breast cancer cell lines studied were MDA-MB435S (estrogen receptor alpha negative), MCF-7 and T47D (estrogen receptor alpha positive), ovarian cancer cell lines (OVCAR-3 and SKOV-3), prostate cancer (LNCaP), the non-malignant breast epithelial cell line MCF-10A and the mouse fibroblast cell line NIH:3T3.
Cells were seeded into 96 well plates at a density of 10,000 cells/well. […] Controls contained USP saline or 0.1% TritonX-100™ as reference for 0 and 100% cell death, respectively. […] Cell viability was assessed through formazan conversion assay (MTT assay, (CellTiter 96 Aqueous One, Promega # G3582). Formazan conversion was determined using a BioRad Benchmark Plus microplate spectrophotometer dual wavelengths at 490/630 nm at room temperature).
Data were calculated as fraction of absorption in TritonX-100™ containing wells representing 100% cell death versus 0% cell death in saline containing wells. Cytotoxicity was determined as IC50 using GraphPad Prism version 5.01 for Windows, GraphPad Software, San Diego Calif. […] 4 wells of each individual set of two 96 well plates were compared and analyzed. Statistical analysis for significance was determined by a two-tailed Student's T-test.

[3] = test system: MDA-MB-435 cells; assay: Fluorescence microscopy, MDA-MB-435 breast cancer cells; type: cell-based, human; conditions: 10 μM, 5 minutes exposure
Method: In brief, human breast cancer cells (MDA-MB435, passage #252) were seeded onto culture dishes. The following markers were introduced prior to adding EP100: DRAQ5™ (Alexis Corporation)—blue—was used for staining of the nucleus and MitoTracker® Red CMXRos (M7512) (Molecular Probes, Inc. OR) were applied for visualizing intact mitochondria. Cell membranes were stained with wheat germ alexa fluor green conjugates (Molecular Probes, Inc. OR).
Cells were loaded first with Mitotracker dye, according to the manufacturers recommendation. […] Culture dishes with saline only served as controls. The supernatant was removed and the remaining cells prepared for fluorescence microscopy imaging.

[4] = test system: MDA-MB-435S xenograft; assay: MDA-MB-435S xenograft, kinetics after a single injection; type: in vivo, Nu/Nu mice; conditions: single i.v. injection 0.2 and 2 mg/kg
Method: In brief, Nu/Nu female mice, outbred strain, age 5 weeks (Charles River), were injected (s.c.) into the interscapular region with a MDA-MB-435 S (passage #249)/Matrigel suspension (2.4×10^6 cells/mouse) as described in Example 10. […] The doses were given as a single bolus intravenous injection via lateral tail vein.
Mice were sacrificed 1, 2 and 16 hours after treatment with Phor 18-LHRH (338613) or saline. At study endpoint body weight, tumor weights were determined and tumors were fixed in phosphate buffered 10% formalin.

[5] = test system: NIH:OVCAR-3 xenograft; assay: OVCAR-3 ovarian cancer xenograft; type: in vivo
Method: The xenograft model of the OVCAR-3 human ovarian cancer cell line that present functional LHRH receptors was used in this study. OVCAR-3 represents a slow growing xenograft model and secretes the tumor marker (cancer antigen 125, or […]). It's secretion can be used as treatment response and is a measure of drug activity.
In brief, Nu/Nu female mice, inbred strain, age 5 weeks (Harlan-Sprague Dawley) were injected subcutaneously with a NIH:OVCAR-3 cells/Matrigel suspension (4.6×10^6 cells/mouse). Treatment was started on day 33 after tumor cell injection when the tumors were established and continued on days 41 and 47. The doses for the 3 weekly injections were 0.02, 0.2 and 2 mg/kg body weight, given as a single bolus intravenous injection via lateral tail vein administered once a week for three weeks on days 33, 41 and 47. Necropsies were conducted on day 52. Data are presented as mean SEM. Arrows show dosing.
A group of 9 tumor bearing mice was sacrificed on day 33 and served as baseline group. All mice were necropsied 51-52 days after tumor cell injection. Tumor volumes and bodyweights were recorded twice weekly during the study, as well as overall veterinarian examination of mice was conducted.
Primary tumors, liver, kidney, pancreas, heart, lung, and spleen were collected, fixed in formalin and prepared for histological evaluation. Tumor weights were measured at necropsy, part of the tumors were frozen at −80° C. for LH/CG and LHRH receptor assay determination.
As a biomarker for drug activity, CA125 was determined in serum, collected from each individual mouse at necropsy using a Enzyme Linked Immunoassay for quantitative determination of ovarian cancer antigen CA125 (Assay kit Genway, Biotech, Inc. San Diego, Calif., Catalog #40-052-115009, # BC-1013 according to the manufacturer).
LHRH receptor levels were assessed from formalin fixed tumors. Quantitative immunoperoxidase image analysis was conducted with the Ventana Image Analysis System (VIAS) adjunctive computer assisted image analysis system functionally connected to an interactive microscope (Axio Imager). The quantitative analysis was conducted with the program for quantification of Her2/neu receptor that included morphometric and colorimetric analysis. Receptor status results were reported as percentage of cells showing positive staining of the LHRH receptors under the following criteria: 0 non-immunoreactive, 1+: 1-25% positive, 2+: 26-50% positive, 3+: 51-75% positive cells.

For “KFAKFAKKFAKFAKKFAKQHWSYGLRPG [Phor18-LHRH]”, the IC50 [1] was 3000 ± 500 nM, the IC50 [2] was 500 nM and the “effect on plasma membrane (fluorescence microscopy)” value [3] was “disintegration of the plasma membrane”. The “time after injection to destruction of tumors (histology)” value [4] was 1 hour, the “dose with significant necrosis in tumor sections” value ([5]; H&E) was 0.02 mg/kg and the “Median Tumor Weight vs Baseline p < 0.05 (dose)” value ([5]; OVCAR-3 xenograft, 1 × 3 wk, 20 d) was 0.2 mg/kg. The “tumor volume during treatment” value ([5]; Phor18-LHRH 0.02-2 mg/kg, CLIP71 2 mg/kg, cisplatinum 10 mg/kg) was “Tumor volumes decreased during treatment”, the “serum CA125” value ([5]; greatest at 0.2 and 2 mg/kg (p<0.0002 vs saline)) was “CA125 secretion was reduced” and the “tumor weights at necropsy” value ([5]; mouse, in vivo) was “Tumor free mice were found”.
